Like-named read-outs stand apart in the source and are kept apart here.
Columns and labels:
[1] = target: T1, EIF2AK3 (PERK) catalytic domain (amino acids 536-1116) (Homo sapiens, UniProt Q9NZJ5); experiment: PERK In Vitro Activity Assay (Isolated), TR-FRET kinase assay; assay type: biochemical; conditions: isolated PERK enzyme, 1.5 μM ATP
T1 construct: EIF2AK3 (PERK) catalytic domain (amino acids 536-1116); purchased Invitrogen, Carlsbad, Calif
T1 sequence (Q9NZJ5 536-1116): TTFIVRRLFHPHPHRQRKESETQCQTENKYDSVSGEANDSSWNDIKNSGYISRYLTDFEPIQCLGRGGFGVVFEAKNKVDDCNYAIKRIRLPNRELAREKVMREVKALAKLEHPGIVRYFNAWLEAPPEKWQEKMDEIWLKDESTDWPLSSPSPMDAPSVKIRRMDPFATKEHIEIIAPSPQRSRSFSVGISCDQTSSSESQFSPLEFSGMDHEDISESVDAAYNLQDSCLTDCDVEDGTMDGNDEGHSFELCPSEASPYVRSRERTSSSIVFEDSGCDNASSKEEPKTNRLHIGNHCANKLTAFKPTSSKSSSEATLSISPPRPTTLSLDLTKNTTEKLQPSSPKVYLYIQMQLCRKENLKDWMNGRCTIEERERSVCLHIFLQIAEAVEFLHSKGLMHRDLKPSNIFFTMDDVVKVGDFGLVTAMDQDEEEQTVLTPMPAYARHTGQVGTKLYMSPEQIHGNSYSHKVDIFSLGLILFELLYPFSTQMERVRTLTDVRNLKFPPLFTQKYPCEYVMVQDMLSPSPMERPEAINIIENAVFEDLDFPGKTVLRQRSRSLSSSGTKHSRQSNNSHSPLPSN
Method: Perform TR-FRET kinase assays in the absence or presence of inhibitors in a reaction buffer consisting of 50 mM HEPES, pH 7.5, 10 mM MgCb, 1.0 mM EGTA, and 0.01% Brij-35, and 100-200 nM GFP-eIF2a substrate. […] Add test compound, initiate the reaction by addition of enzyme, and incubate at room temperature for 45 minutes. Stop the reaction by addition of EDTA to a final concentration of 10 mM, add Terbium-labelled phospho-eIF2a antibody at a final concentration of 2 nM, and incubate for 90 minutes. Monitor the resulting fluorescence in an EnVison® Multilabel reader (PerkinElmer, Waltham, Mass.).

HEK293-EGFP-eIF2a cells = experiment: PERK Cellular Assay (TR-FRET, GFP-eIF2α, tunicamycin-induced ER stress); assay type: cell-based, human
Method: Stable cell lines were created in HEK293 cells using lentiviral particles harboring an expression vector for GFP-eIF2α. Cells were selected using puromycin and enriched using fluorescence activated cell sorting against GFP. HEK293-EGFP-eIF2a cells were plated at 5000 cells/well in 384-well assay plates and incubated overnight at 37° C., 5% CO2. Inhibitor compounds were added to the wells by Echo acoustic dispensing and incubated for 30 minutes at 37° C., 5% CO2 prior to induction of ER stress by addition of tunicamycin to […] for 2 hours. Cells were lysed and TR-FRET was measured in an EnVision plate reader (PerkinElmer). FRET ratio data was normalized to signal from lysates treated with DMSO vehicle control and plotted as percent inhibition against 10-point; 3-fold dilution series of inhibitors. IC50 values were calculated using 4-parameter logistical fitting in XLFit.

[2] = Homo sapiens, 2 h, HEK293-EGFP-eIF2a cells, tunicamycin 2 hours, TR-FRET, read-out: Cellular eIF2α IC50
[3] = HEK293-EGFP-eIF2a cells, tunicamycin 2 hours, TR-FRET, read-out: Cellular eIF2α IC50
[4] = Homo sapiens, 2 h, read-out: Cellular eIF2α IC50 (μM)

IC50 ([1]; read-out: Biochemical IC50) [µM] | SMILES | IC50 (HEK293-EGFP-eIF2a cells; [2]) [µM] | IC50 (HEK293-EGFP-eIF2a cells; [3]) [µM] | IC50 ([1]; Biochemical IC50 (μM)) [µM] | IC50 (HEK293-EGFP-eIF2a cells; [4]) [µM]
0.001 to 0.025 | Cc1nc(N)c2c(-c3ccc4c(c3F)CCN4C(=O)C(O)c3cc(F)cc(F)c3)cn(C)c2n1 (racemic) [Example 10, 1-(5-(4-amino-2,7-dimethyl-7H-pyrrolo[2,3-d]pyrimidin-5-yl)-4-fluoroindolin-1-yl)-2-(3,5-difluorophenyl)-2-hydroxyethanone] | 0.001 to 0.025 |  |  | 
0.051 to 0.1 | Cc1cccc(C(O)C(=O)N2CCc3c2ccc(-c2nc(C4CC(C)(O)C4)n4cc(C)nc(N)c24)c3F)n1 (single isomer, unassigned) [Example 18, 1-(5-(8-amino-3-(3-hydroxy-3-methylcyclobutyl)-6-methylimidazo[1,5-a]pyrazin-1-yl)-4-fluoroindolin-1-yl)-2-hydroxy-2-(6-methylpyridin-2-yl)ethanone] |  | 3 to 4 |  | 
0.001 to 0.025 | Cc1nc(-c2ccc3c(c2)CCN3C(=O)Cc2cc(F)cc(C(F)(F)F)c2)c2c(N)ncc(Cl)n12 [Example 33, 1-(5-(8-amino-5-chloro-3-methylimidazo[1,5-a]pyrazin-1-yl)indolin-1-yl)-2-(3-fluoro-5-(trifluoromethyl)phenyl)ethanone] | 0.001 to 0.025 |  |  | 
0.051 to 0.1 | Cc1cccc(CC(=O)N2CCc3c2ccc(-c2nc(C)n4c(C)cnc(N)c24)c3F)n1 [Example 24, 1-(5-(8-amino-3,5-dimethylimidazo[1,5-a]pyrazin-1-yl)-4-fluoroindolin-1-yl)-2-(6-methylpyridin-2-yl)ethanone] | 0.026 to 0.05 |  |  | 
0.026 to 0.05 | Cn1cc(-c2ccc3c(c2F)CCN3C(=O)C(F)(F)c2ccccc2)c2c(N)ncnc21 [Example 30, 1-(5-(4-amino-7-methyl-7H-pyrrolo[2,3-d]pyrimidin-5-yl)-4-fluoroindolin-1-yl)-2,2-difluoro-2-phenylethanone] | 0.101 to 0.25 |  |  | 
0.026 to 0.05 | Cc1nc(N)c2c(-c3ccc4c(c3)CCN4C(=O)C(O)c3cc(F)cc(C(F)(F)F)c3)cn(C)c2n1 (single isomer, unassigned) [Example 20, 1-(5-(4-amino-2,7-dimethyl-7H-pyrrolo[2,3-d]pyrimidin-5-yl)indolin-1-yl)-2-(3-fluoro-5-(trifluoromethyl)phenyl)-2-hydroxyethanone] |  | 0.026 to 0.05 |  | 
0.001 to 0.025 | Cc1cccc(CC(=O)N2CCc3c2ccc(-c2cn(C)c4nc(C)nc(N)c24)c3F)n1 [Example 21, 1-(5-(4-amino-2,7-dimethyl-7H-pyrrolo[2,3-d]pyrimidin-5-yl)-4-fluoroindolin-1-yl)-2-(6-methylpyridin-2-yl)ethanone] | 0.026 to 0.05 |  |  | 
0.101 to 0.25 | Cc1cccc(CC(=O)N2CCc3c2ccc(-c2nc(C)n4cc(C)nc(N)c24)c3F)n1 [Example 26, 1-(5-(8-amino-3,6-dimethylimidazo[1,5-a]pyrazin-1-yl)-4-fluoroindolin-1-yl)-2-(6-methylpyridin-2-yl)ethanone] | 0.101 to 0.25 |  |  | 
0.001 to 0.025 | Cc1cn2c(C3CC(C)(O)C3)nc(-c3ccc4c(c3F)CCN4C(=O)C(O)c3cccc(F)c3)c2c(N)n1 (single isomer, unassigned) [Example 14, 1-(5-(8-amino-3-(3-hydroxy-3-methylcyclobutyl)-6-methylimidazo[1,5-a]pyrazin-1-yl)-4-fluoroindolin-1-yl)-2-(3-fluorophenyl)-2-hydroxyethanone] |  | 0.051 to 0.1 |  | 
0.051 to 0.1 | CC(C)NC(=O)c1cc(-c2ccc3c(c2F)CCN3C(=O)C(O)c2cc(F)cc(F)c2)cnc1N (single isomer, unassigned) [Example 7, 2-amino-5-(1-(2-(3,5-difluorophenyl)-2-hydroxyacetyl)-4-fluoroindolin-5-yl)-N-isopropylnicotinamide] |  | 0.101 to 0.25 |  | 
0.101 to 0.25 | CC(C)NC(=O)c1cc(-c2ccc3c(c2F)CCN3C(=O)C(O)c2cc(F)cc(F)c2)cnc1N (single isomer, unassigned) [Example 6, 2-amino-5-(1-(2-(3,5-difluorophenyl)-2-hydroxyacetyl)-4-fluoroindolin-5-yl)-N-isopropylnicotinamide] |  | 0.251 to 0.5 |  | 
0.051 to 0.1 | Cc1cccc(CC(=O)N2CCc3c2ccc(-c2cnc(N)c(C(=O)NC(C)C)c2)c3F)n1 [Example 29, 2-amino-5-(4-fluoro-1-(2-(6-methylpyridin-2-yl)acetyl)indolin-5-yl)-N-isopropylnicotinamide] | 0.501 to 1 |  |  | 
0.001 to 0.025 | Cc1cc(C)n(CC(=O)N2CCc3c2ccc(-c2cn(C)c4nc(C)nc(N)c24)c3F)n1 [Example 32, 1-(5-(4-amino-2,7-dimethyl-7H-pyrrolo[2,3-d]pyrimidin-5-yl)-4-fluoroindolin-1-yl)-2-(3,5-dimethyl-1H-pyrazol-1-yl)ethanone] | 0.051 to 0.1 |  |  | 

More lines, now with the values behind:

SMILES | IC50 ([1]; read-out: Biochemical IC50) [µM] | IC50 (HEK293-EGFP-eIF2a cells; [2]) [µM] | IC50 (HEK293-EGFP-eIF2a cells; [3]) [µM] | IC50 ([1]; Biochemical IC50 (μM)) [µM] | IC50 (HEK293-EGFP-eIF2a cells; [4]) [µM]
Cn1cc(-c2ccc3c(c2F)CCN3C(=O)C(O)c2ccccc2)c2c(N)ncnc21 (single isomer, unassigned) [Example 1, 1-(5-(4-amino-7-methyl-7H-pyrrolo[2,3-d]pyrimidin-5-yl)-4-fluoroindolin-1-yl)-2-hydroxy-2-phenylethanone] | 0.001 to 0.025 |  | 0.001 to 0.025 |  | 
CCc1cnc(N)c2c(-c3ccc4c(c3F)CCN4C(=O)Cc3cccc(C)n3)nc(C)n12 [Example 25, 1-(5-(8-amino-5-ethyl-3-methylimidazo[1,5-a]pyrazin-1-yl)-4-fluoroindolin-1-yl)-2-(6-methylpyridin-2-yl)ethanone] | 0.051 to 0.1 | 0.051 to 0.1 |  |  | 
Cc1cc(C)n(CC(=O)N2CCc3c2ccc(-c2cn(C)c4ncnc(N)c24)c3F)n1 [Example 31, 1-(5-(4-amino-7-methyl-7H-pyrrolo[2,3-d]pyrimidin-5-yl)-4-fluoroindolin-1-yl)-2-(3,5-dimethyl-1H-pyrazol-1-yl)ethanone] |  |  |  | 0.001 to 0.025 | 0.001 to 0.025
Cc1cccc(CC(=O)N2CCc3c2ccc(-c2nc(C)n4c(C)c(C)nc(N)c24)c3F)n1 [Example 27, 1-(5-(8-amino-3,5,6-trimethylimidazo[1,5-a]pyrazin-1-yl)-4-fluoroindolin-1-yl)-2-(6-methylpyridin-2-yl)ethanone] | 0.051 to 0.1 | 0.251 to 0.5 |  |  | 
Cn1cc(-c2ccc3c(c2F)CCN3C(=O)Nc2ccccc2)c2c(N)ncnc21 [Example 28, 5-(4-amino-7-methyl-7H-pyrrolo[2,3-d]pyrimidin-5-yl)-4-fluoro-N-phenylindoline-1-carboxamide] | 0.101 to 0.25 | 2 to 3 |  |  | 
Cc1nc(N)c2c(-c3ccc4c(c3F)CCN4C(=O)C(O)c3ccccc3)cn(C)c2n1 (racemic) [Example 5, 1-(5-(4-amino-2,7-dimethyl-7H-pyrrolo[2,3-d]pyrimidin-5-yl)-4-fluoroindolin-1-yl)-2-hydroxy-2-phenylethanone] | 0.026 to 0.05 |  |  |  | 
Cc1nc(N)c2c(-c3ccc4c(c3)CCN4C(=O)C(O)c3cc(F)cc(C(F)(F)F)c3)cn(C)c2n1 (single isomer, unassigned) [Example 19, 1-(5-(4-amino-2,7-dimethyl-7H-pyrrolo[2,3-d]pyrimidin-5-yl)indolin-1-yl)-2-(3-fluoro-5-(trifluoromethyl)phenyl)-2-hydroxyethanone] | 0.001 to 0.025 |  | 0.101 to 0.25 |  | 
Cn1cc(-c2ccc3c(c2F)CCN3C(=O)Cc2cccc(C(F)(F)F)n2)c2c(N)ncnc21 [Example 22, 1-(5-(4-amino-7-methyl-7H-pyrrolo[2,3-d]pyrimidin-5-yl)-4-fluoroindolin-1-yl)-2-(6-(trifluoromethyl)pyridin-2-yl)ethanone] |  |  |  | 0.001 to 0.025 | 0.001 to 0.025
Cc1nc(N)c2c(-c3ccc4c(c3F)CCN4C(=O)C(O)c3cccc(F)c3)cn(C)c2n1 (racemic) [Example 9, 1-(5-(4-amino-2,7-dimethyl-7H-pyrrolo[2,3-d]pyrimidin-5-yl)-4-fluoroindolin-1-yl)-2-(3-fluorophenyl)-2-hydroxyethanone] |  | 0.051 to 0.1 |  |  | 
